Experimental data: paper PMC10117725, “From an Hsp90 - binding protein to a peptide drug” (microLife, 2022)
Where no end group is shown, it is not given here.

Tests used:
[1] = test system: Staphylococcus aureus; experiment: Bacterial growth kinetics; assay type: cell-based; settings: OD578 every 1 h for 24 h, 37°C, TSB
Experimental: Staphylococcus aureus precultured in TSB overnight were inoculated to OD∼0.01 into a 48 well plate and L15 and L13 were added to study the effect of peptides on bacterial growth using Varioskan LUX Multimode Microplate Reader. With this instrument, a kinetic measurement of OD578 nm was obtained every 1 h for a total of 24 h, at 37°C with continuous shaking.

[2] = test system: HaCaT cells; experiment: MTT cytotoxicity in HaCaT cells; assay type: cell-based, human; settings: for toxicity to HaCaT cells at tested concentration and exposure time: concentrations used in invasion studies (Fig. S1)
Experimental: (§1) MTT (3-(4,5-dimethylthiazol-2-yl)-2,5-diphenyl tetrazolium bromide) assay was employed to analyze the cytotoxicity of peptides and geldanamycin to the cells. 5 × 10^5 cells were seeded in a 96 flat bottom well plate and incubated for 2.5 or 24 h at 37°C with 5% CO2. The cells were then treated with increasing concentration (0 to 200 µM) of peptides or geldanamycin for 24 h. After the incubation, 10 μl of the MTT labelling reagent is added to each well to attain a final concentration 0.5 mg/ml, followed by 4 h incubation. Metabolically active cells convert the yellow tetrazolium salt to purple formazan crystals, which were solubilized using the solubilization solution (DMSO) and measured for absorbance at λmax/λref–570/690 nm (Saising et al. [2018]).

[3] = test system: F-actin levels in N/TERT-1 cells; experiment: F-actin measurement (ActinGreen 488 fluorescence) in N/TERT-1 cells; assay type: cell-based, human; settings: L15 20 µM, L13 30 µM, geldanamycin 5 µM; 1.5 h; relative to control
Experimental: About 5 × 10^4 cells were seeded in black flat bottom 96 well cell culture microplate (Greiner, Germany) and incubated overnight. The cells were then incubated with peptides or geldanamycin for 1.5 h. After incubation, the cells were washed, permeabilised with 0.1% (v/v) Triton X-100 and stained with ActinGreen™ 488 ReadyProbes® (Thermo Fischer, Germany) for 30 min. After the staining, the cells were washed and measure for its fluorescence at Excitation/Emission: 495/518 nm (Luqman et al. [2020]).

[4] = test system: S. aureus USA300 internalization by HaCaT cells; experiment: S. aureus USA300 invasion (internalization) into HaCaT keratinocytes; assay type: cell-based, human; settings: for relative invasion (intracellular USA300 count) in HaCaT at 20 µM: peptide 20 µM; for relative invasion (intracellular USA300 count) in HaCaT at 50 µM: peptide 50 µM; for decrease in uptake/invasion of S. aureus USA300 by HaCaT cells compared to untreated control: preincubation with L15 20 µM, L13 30 µM, geldanamycin 5 µM or α-Hsp90α antibody, MOI 30; for concentration from which a significant reduction of intracellular USA300 was observed: tested 0 to 50 µM in HaCaT
Experimental: The invasion protocol was adapted from our previous papers (Nguyen et al. [2015], Tribelli et al. [2020]). About 5 × 10^5 Keratinocytes were seeded in a 24 well plate (Greiner, Frickenhausen, Germany) to attain a monolayer of ∼10^6 cells/well. Staphylococcusaureus was grown overnight at 37°C, centrifuged and suspended in invasion medium (DMEM with 10% FBS for HaCaT and K-SFM for NTERT-1 cells). The adherent keratinocytes were […], or 5 µM geldanamycin (Sigma-Aldrich, Germany) or monoclonal antibodies specific against Hsp90α (α‐Hsp90α, Abcam) for 1 h. After 1 h, 100 µl of bacterial suspension was added to each well to attain a MOI (multiplicity of infection) of 30 and incubated with cells for 1.5 h. Subsequently, the extracellular bacteria were killed with treatment of 2.5 μg/ml lysostaphin (Sigma-Aldrich, Germany) for 1.5 h. The cells were then washed, lysed, mechanically detached by scraping, diluted, and enumerated on TSA (Tryptic Soy Agar) plates to quantify the intracellular bacteria.

[5] = test system: S. aureus USA300 infected PBMCs; experiment: Cytokine release of S. aureus USA300 infected PBMCs (ELISA); assay type: cell-based, human; settings: L15 20 µM, L13 30 µM, geldanamycin 5 µM; 20 h; n = 5; vs unstimulated infected PBMCs
[6] = Solubility in PBS; assay type: physicochemical; settings: qualitative statement
[7] = test system: total ATPase activity in HaCaT cells; experiment: Total ATPase activity in HaCaT cells; assay type: cell-based, human; settings: Fig. S4
[8] = test system: N/TERT-1 cells; experiment: Cytotoxicity in N/TERT-1 cells at tested concentration; assay type: cell-based, human; settings: concentrations used in invasion studies (Fig. S1)
Experimental: as §1

[9] = molecular target: T1, Lpl1 (Staphylococcus aureus, UniProt Q2FJK4); experiment: Dot blot / immunoblot interaction with Lpl1-his; assay type: binding; settings: 2 µg blotted, anti-6X His immunodetection
T1 construct: made in house
T1 sequence (Q2FJK4 23-257): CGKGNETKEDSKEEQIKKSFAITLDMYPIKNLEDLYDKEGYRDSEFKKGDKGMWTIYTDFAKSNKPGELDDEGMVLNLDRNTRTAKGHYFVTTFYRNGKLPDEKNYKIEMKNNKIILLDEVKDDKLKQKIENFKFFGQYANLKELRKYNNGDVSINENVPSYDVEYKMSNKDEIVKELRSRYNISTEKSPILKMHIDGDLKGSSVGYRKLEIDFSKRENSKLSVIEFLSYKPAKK
Experimental: Two µg of each peptide was blotted (dot blot) directly on PDV nitrocellulose membrane and blocked with ROTI®Block (Carl Roth, Germany). After washing, the membrane was then incubated with 20 μg of recombinant Hsp90α (Abcam)/Lpl1-his protein at 4°C overnight. In case of interaction studies with Hsp90α, α-Hsp90α (produced in mouse, Abcam) was used as the primary antibody and for interaction studies with Lpl1-his, Anti-6X His tag antibody (also produced in mouse, Sigma-Aldrich, Germany) was used. Alkaline phosphatase conjugated goat-α-mouse IgG (Sigma-Aldrich, Germany) served as the secondary antibody. Detection was done using BCIP®/NBT solution (Sigma, Germany). Lpl1-his was isolated and purified as described in our previous paper (Tribelli et al. [2020]).

[10] = test system: S. aureus USA300; experiment: Galleria mellonella larvae infection model, S. aureus USA300; assay type: in vivo
Experimental: Galleria mellonella larvae, purchased from Feeders & more GmbH, Germany, were sorted based on weight and used within one week. Ten larvae per group with weight average of 500 mg/larvae were injected with bacteria and/or peptides on its last proleg using a BD insulin syringe. The dosage used for the experiment were 60 mg/kg for peptides, 5 mg/kg of geldanamycin and 20 mg/kg for vancomycin. Each larva was injected with 10 µl of L15 (last left proleg) 1 h before administration of 10^6 cfu S. aureus (last right proleg). The larvae were maintained at 37°C and observed for mortality every day over the course of 5 days.

[11] = test system: human peripheral blood mononuclear cells (PBMCs); experiment: Cytokine induction in PBMCs (bead-based immunoassay); assay type: cell-based; settings: IL-6, IL10, IL-12p70, IL12-p40, IL-23, TNFα, IL-1ß, IL-1RA, IP-10, TARC; 20 h
Experimental: Human peripheral blood mononuclear cells (PBMCs) from buffy coat blood samples of healthy donors were stimulated with the indicated doses of L15 and L13 for 20 h. For the subsequent bead-based immunoassay, the cell culture supernatants of a total of four buffy coats per immunoassay were used. Each of the stimulations was performed in biological duplicates. The secreted cytokines were then identified and quantified using the immunofluorescent bead-based immunoassay LEGENDplex® Human Macrophage/Microglia Panel (13-plex) and the corresponding Data Analysis Software from BioLegend. Muramyl Dipeptide (MDP) which activates the NOD-2 receptors was used as the positive control.

Sequence	effect on growth of S. aureus [1]	percentage of viable cells, HaCaT, 1 µM ([2]; MTT, 24 h, 1 µM) [%]	percentage of viable cells, HaCaT, 200 µM ([2]; MTT, 24 h, 200 µM) [%]	toxicity to HaCaT cells at tested concentration and exposure time [2]	relative F-actin content in N/TERT-1 cells [3]	relative invasion (intracellular USA300 count) in HaCaT at 20 µM ([4]; untreated control 1.0 ± 0.0)	relative invasion (intracellular USA300 count) in HaCaT at 40 µM ([4]; peptide 40 µM, untreated control 1.0 ± 0.0)	relative invasion (intracellular USA300 count) in HaCaT at 50 µM ([4]; untreated control 1.0 ± 0.0)	decrease in uptake/invasion of S. aureus USA300 by HaCaT cells compared to untreated control [4]	concentration from which a significant reduction of intracellular USA300 was observed [4] [µM]	IL-6 production of infected PBMCs [5]	solubility in PBS [6]	effect on total ATPase activity in HaCaT cells [7]	toxicity to N/TERT-1 cells at tested concentration and exposure time [8]	direct interaction with Lpl1 [9]	larvae surviving on day 5, S. aureus USA300 ([10]; peptides 60 mg/kg injected 1 h before 10^6 cfu, 37°C, 10 larvae per group, three biological replicates) [%]	cytokine inducing activity in PBMCs [11]	reduction of lethality of S. aureus in the insect model ([10]; G. mellonella model)
GHYFVTTFY [L13]	did not detect any effect on growth	103.05 ± 10.06	83.79 ± 11.13	neither inhibit the viability of host cells	0.81 ± 0.03	0.67 ± 0.05	0.41 ± 0.03	0.73 ± 0.18	50–60%	≥ 20	significantly increased	poor solubility in PBS	could not detect any significant inhibition	neither inhibit the viability of host cells	interact directly	23	–	–
TAKGHYFVTTFYRNG [L15]	did not detect any effect on growth	–	–	neither inhibit the viability of host cells	0.9 ± 0.02	0.33 ± 0.24	–	0.40 ± 0.05	50–60%	≥ 20	significantly increased	better soluble	could not detect any significant inhibition	neither inhibit the viability of host cells	interact directly	–	relatively inert	about 30%
